Data: ChEMBL document CHEMBL5096208, “Installation of Pargyline, a LSD1 Inhibitor, in the HDAC Inhibitory Template Culminated in the Identification of a Tractable Antiprostate Cancer Agent” (J Med Chem, 2021)
Active and inactive are the calls of the source. The rule behind the calls is not given here.

Key:
[1] = organism: Homo sapiens; test: Selectivity ratio of IC50 for human HDAC3 to IC50 for human HDAC6
[2] = Metabolic stability in human hepatocyte assessed as intrinsic clearance at 10 uM by LC-MS/MS analysis; type: ADME, cell-based; conditions: hepatocytes, read-out: CLH
[3] = AUC (0 to infinity) in Sprague-Dawley rat at 25 mg/kg, po formulated using SMEDDS administered once via gavage measured upto 24 hrs post dose by UPLC-MS/MS analysis; type: ADME, organism-based; set-up: dose 25 mg/kg, time < 24 hrs, route po; conditions: in vivo
[4] = Half life in Sprague-Dawley rat at 25 mg/kg, po formulated using SMEDDS administered once via gavage measured upto 24 hrs post dose by UPLC-MS/MS analysis; type: ADME, organism-based; conditions: in vivo
[5] = tested on: PC-3; test: Antitumor activity against human PC-3 cells xenografted in athymic nude mouse assessed as tumor growth inhibition at 50 mg/kg, po qd measured upto 25 days by caliper method relative to control; type: functional; conditions: PC-3, 600 h, time <= 25 day, read-out: TGI
[6] = Half life in Sprague-Dawley rat at 2 mg/kg, iv administered as single dose through tail vein measured upto 24 hrs post dose by UPLC-MS/MS analysis; type: ADME, organism-based; conditions: in vivo
[7] = Metabolic stability in human hepatocyte assessed as parent compound remaining at 10 uM incubated for 30 mins by LC-MS/MS analysis; type: ADME, cell-based; conditions: hepatocytes, read-out: Stability
[8] = tested on: PC-3; test: Induction of apoptosis in human PC-3 cells at 1.25 to 10 uM incubated for 48 hrs by Western blot analysis; type: functional, cell-based; conditions: dose 1.25-10 µM
[9] = Metabolic stability in Beagle dog hepatocyte assessed as parent compound remaining at 10 uM incubated for 120 mins by LC-MS/MS analysis; type: ADME, cell-based, Canis lupus familiaris; conditions: hepatocytes, read-out: Stability
[10] = molecular target: Histone deacetylase 2 (Homo sapiens, UniProt Q92769); test: Inhibition of human HDAC2 (379 to 382 residues) using RHKKAc as flurogenic substrate
Chain of Histone deacetylase 2 (Q92769 whole entry, the tested form may be a part): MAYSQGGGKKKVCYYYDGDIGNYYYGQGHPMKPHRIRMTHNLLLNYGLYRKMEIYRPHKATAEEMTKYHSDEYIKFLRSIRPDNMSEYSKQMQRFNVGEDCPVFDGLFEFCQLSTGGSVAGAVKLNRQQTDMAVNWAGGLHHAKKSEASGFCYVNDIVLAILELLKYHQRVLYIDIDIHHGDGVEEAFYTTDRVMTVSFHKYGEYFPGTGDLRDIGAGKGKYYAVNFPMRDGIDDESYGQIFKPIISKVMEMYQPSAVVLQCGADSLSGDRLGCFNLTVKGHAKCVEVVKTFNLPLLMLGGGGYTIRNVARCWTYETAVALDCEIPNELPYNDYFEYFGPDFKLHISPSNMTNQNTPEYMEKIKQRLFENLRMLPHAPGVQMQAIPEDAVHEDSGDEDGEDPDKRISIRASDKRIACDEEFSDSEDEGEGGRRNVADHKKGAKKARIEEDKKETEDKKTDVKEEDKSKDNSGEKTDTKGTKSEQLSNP

[11] = molecular target: Lysine-specific histone demethylase 1A (Homo sapiens) (UniProt O60341); test: Inhibition of LSD1 (unknown origin) using […] as substrate at 1 uM incubated for 48 hrs followed by substrate addition and measured after 2 hrs by microplate reader analysis; conditions: time 50.0 hrs
[12] = organism: Homo sapiens; test: Selectivity ratio of IC50 for human HDAC10 to IC50 for human HDAC6
[13] = tested on: HUVEC; test: Cytotoxicity against HUVEC cells assessed as reduction in cell viability at upto 10 uM incubated for 48 hrs by MTT assay; type: toxicity, cell-based; conditions: human
[14] = Metabolic stability in Sprague-Dawley rat hepatocyte assessed as parent compound remaining at 10 uM incubated for 120 mins by LC-MS/MS analysis; type: ADME, cell-based; conditions: hepatocytes, read-out: Stability
[15] = tested on: DU-145; test: Antitumor activity against human DU-145 cells xenografted in athymic nude mouse assessed as tumor growth inhibition at 50 mg/kg, po qd measured upto 60 days by caliper method relative to control; type: functional; conditions: DU-145, 1440 h, time <= 60 day, read-out: TGI
[16] = Tmax in Sprague-Dawley rat at 25 mg/kg, po administered once via gavage measured upto 24 hrs post dose by UPLC-MS/MS analysis; type: ADME, organism-based; conditions: in vivo
[17] = molecular target: T1, Histone deacetylase 7 (Homo sapiens, UniProt Q8WUI4); test: Inhibition of human HDAC7 using Boc-Lys(trifluoroacetyl)-AMC as flurogenic substrate
T1 sequence (Q8WUI4 whole entry): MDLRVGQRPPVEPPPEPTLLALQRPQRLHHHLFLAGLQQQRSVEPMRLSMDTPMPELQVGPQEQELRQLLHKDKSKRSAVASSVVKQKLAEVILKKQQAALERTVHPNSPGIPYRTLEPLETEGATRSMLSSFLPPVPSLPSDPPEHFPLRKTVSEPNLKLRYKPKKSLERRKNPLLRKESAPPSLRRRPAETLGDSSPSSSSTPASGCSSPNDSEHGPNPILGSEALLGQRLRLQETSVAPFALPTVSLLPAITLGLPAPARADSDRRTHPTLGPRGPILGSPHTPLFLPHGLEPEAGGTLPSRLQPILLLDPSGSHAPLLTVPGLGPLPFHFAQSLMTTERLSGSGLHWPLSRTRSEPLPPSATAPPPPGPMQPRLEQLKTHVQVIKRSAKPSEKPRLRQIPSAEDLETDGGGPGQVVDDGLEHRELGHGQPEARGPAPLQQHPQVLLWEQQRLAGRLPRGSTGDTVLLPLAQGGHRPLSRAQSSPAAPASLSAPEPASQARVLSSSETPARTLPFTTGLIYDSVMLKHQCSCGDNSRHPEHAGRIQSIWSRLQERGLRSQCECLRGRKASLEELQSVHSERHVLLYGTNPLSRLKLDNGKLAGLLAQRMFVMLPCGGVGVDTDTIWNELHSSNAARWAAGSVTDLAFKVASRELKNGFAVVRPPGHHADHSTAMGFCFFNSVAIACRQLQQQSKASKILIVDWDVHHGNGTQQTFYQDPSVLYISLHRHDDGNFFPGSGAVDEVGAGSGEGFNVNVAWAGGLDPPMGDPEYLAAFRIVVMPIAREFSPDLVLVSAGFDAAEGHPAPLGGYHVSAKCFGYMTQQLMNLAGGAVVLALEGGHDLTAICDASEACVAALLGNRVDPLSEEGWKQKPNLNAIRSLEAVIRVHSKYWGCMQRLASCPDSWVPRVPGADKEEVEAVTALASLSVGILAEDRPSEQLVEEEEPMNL

[18] = Metabolic stability in Sprague-Dawley rat hepatocyte assessed as parent compound remaining at 10 uM by LC-MS/MS analysis; type: ADME, cell-based; conditions: hepatocytes, read-out: Stability
[19] = organism: Homo sapiens; test: Selectivity ratio of IC50 for human HDAC5 to IC50 for human HDAC6
[20] = tested on: PC-3; test: Antitumor activity against human PC-3 cells xenografted in athymic nude mouse assessed as tumor growth inhibition at 100 mg/kg, po qd measured upto 25 days by caliper method relative to control; type: functional; conditions: PC-3, 600 h, time <= 25 day, read-out: TGI
[21] = Metabolic stability in Beagle dog hepatocyte assessed as parent compound remaining at 10 uM incubated for 60 mins by LC-MS/MS analysis; type: ADME, cell-based, Canis lupus familiaris; conditions: hepatocytes, read-out: Stability
[22] = Metabolic stability in human hepatocyte assessed as parent compound remaining at 10 uM incubated for 120 mins by LC-MS/MS analysis; type: ADME, cell-based; conditions: hepatocytes, read-out: Stability

SMILES: C#CCN(C)Cc1cccc(NC(=O)CCCCCCC(=O)NO)c1
- Ratio IC50 [1]: 5.8
- CLint scaled at 10 µM [2]: 9.78 mL/min/kg
- AUC(0-inf) [3]: 596 ng·h/mL
- half-life [4]: 4.3 h
- inhibition in vivo at 50 mg/kg [5]: 36.9%
- half-life [6]: 8.1 h
- remaining at 0.5 h, 10 µM [7]: 103%
- Activity [8]: Active
- remaining at 2 h, 10 µM [9]: 66.7%
- IC50 [10]: 1.54 µM
- inhibition [11]: Active
- Ratio IC50 [12]: 18.7
- Activity [13]: Non-Toxic
- remaining at 2 h, 10 µM [14]: 35.9%
- inhibition in vivo at 50 mg/kg [15]: 65.8%
- Tmax [16]: 0.5 h
- IC50 [17]: > 10 µM
- remaining at 10 µM [18]: 100%
- Ratio IC50 [19]: 670
- inhibition in vivo at 100 mg/kg [20]: 53.1%
- remaining at 1 h, 10 µM [21]: 81.2%
- remaining at 2 h, 10 µM [22]: 95.5%
